Data reported in US10434147B2, “Treatment type 2 diabetes mellitus patients” (Sanofi-Aventis Deutschland GmbH, priority 2015, dated 2019).
Marks after values point to notes of the source that are not given here.

Assays:
[1] = test system: Patients with Type 2 Diabetes Insufficiently Controlled with Insulin Glargine with or without Metformin; assay: Fasting plasma glucose, 26-week study; assay type: in vivo, human; conditions: for Fasting plasma glucose change to Week 26, LS Mean difference (SE) of Lixisenatide vs. the labelled insulin glulisine arm / Fasting plasma glucose, Change from baseline to Week 26 (LOCF), LS Mean (SE): ANCOVA; for Fasting plasma glucose change to Week 26, LS Mean difference (SE) of Lixisenatide vs. the labelled insulin glulisine arm / Fasting plasma glucose, Change from baseline to Week 26 (LOCF), LS Mean (SE) / Fasting plasma glucose, Baseline, Mean (SD) / Fasting plasma glucose, Baseline, Median / Fasting plasma glucose, Week 26 (LOCF), Mean (SD) / Fasting plasma glucose, Week 26 (LOCF), Median / Fasting plasma glucose, Change from baseline to Week 26 (LOCF), Mean (SD) / Fasting plasma glucose, Change from baseline to Week 26 (LOCF), Median: mITT population; for FPG, BL (end run-in) mean ± SD / FPG, Screening (start run-in) mean ± SD / FPG, Week 26 (LOCF) mean ± SD / FPG, LS mean treatment difference (lixisenatide vs the labelled arm) / FPG, LS mean ± SE change from BL: mITT; for Fasting plasma glucose, Baseline, Mean (SD) / Fasting plasma glucose, Baseline, Median: Baseline (before IMP); for FPG, LS mean treatment difference (lixisenatide vs the labelled arm) / FPG, LS mean ± SE change from BL: Week 26
Excerpt: (§1) FIG. 6—Graphical study design. ^1 Insulin glargine should be injected subcutaneously once daily at dinner or breakfast time (according to patient's/investigators' preference). […] Meal used for insulin glulisine dosing should remain the same throughout the 26-week treatment period. ^4 Injection of insulin glulisine prior to breakfast, lunch and dinner.
(§2) Co-primary endpoints at 26 weeks were (1) non-inferiority (95% CI upper bound <0.4%) in HbA1c reduction with LIXI vs GLU-1 and (2) for LIXI vs GLU-3, either non-inferiority in HbA1c reduction (2a) OR superiority (one-sided α≤0.025) in body weight change (2b). FPG, PPG, IG dose, composite outcomes, AEs, and hypoglycemia were assessed.

[2] = test system: Patients with Type 2 Diabetes Insufficiently Controlled with Insulin Glargine with or without Metformin; assay: HbA1c, randomized open-label active-controlled 3-arm 26-week study (GetGoal-Duo2); assay type: in vivo, human; conditions: for HbA1c change to Week 26, LS Mean difference (SE) of Lixisenatide vs. the labelled insulin glulisine arm / HbA1c, Change from baseline to Week 26 (LOCF), LS Mean (SE): ANCOVA; for HbA1c change to Week 26, LS Mean difference (SE) of Lixisenatide vs. the labelled insulin glulisine arm / HbA1c, Change from baseline to Week 26 (LOCF), LS Mean (SE) / HbA1c, Baseline, Mean (SD) / HbA1c, Baseline, Median / HbA1c, Week 26 (LOCF), Mean (SD) / HbA1c, Week 26 (LOCF), Median / HbA1c, Change from baseline to Week 26 (LOCF), Mean (SD) / HbA1c, Change from baseline to Week 26 (LOCF), Median: mITT population; for HbA1c, BL (end run-in) mean ± SD / HbA1c, Screening (start run-in) mean ± SD / HbA1c, Week 26 (LOCF) mean ± SD / HbA1c, LS mean treatment difference (lixisenatide vs the labelled arm), co-primary endpoint / HbA1c, LS mean ± SE change from BL: mITT; for HbA1c, Baseline, Mean (SD) / HbA1c, Baseline, Median: Baseline (before IMP); for HbA1c, Week 26 (LOCF) mean ± SD / HbA1c, LS mean treatment difference (lixisenatide vs the labelled arm), co-primary endpoint / HbA1c, LS mean ± SE change from BL: Example 2 table; for HbA1c, LS mean treatment difference (lixisenatide vs the labelled arm), co-primary endpoint / HbA1c, LS mean ± SE change from BL: Week 26
Excerpt: as §1, §2

[3] = test system: Patients with Type 2 Diabetes Insufficiently Controlled with Insulin Glargine with or without Metformin; design: species or system human; conditions: in vivo
Excerpt: Clinical symptoms that are considered to result from a hypoglycemic episode are, e.g., increased sweating, nervousness, asthenia/weakness, tremor, dizziness, increased appetite, palpitations, headache, sleep disorder, confusion, seizures, unconsciousness, coma.
as §2

[4] = test system: Patients with Type 2 Diabetes Insufficiently Controlled with Insulin Glargine with or without Metformin; assay type: in vivo, human; conditions: for Reason for treatment discontinuation: Lack of efficacy: Randomized population, HbA1c above […] at Week 12 or later; for Reason for treatment discontinuation: Adverse event: human, in vivo
[5] = test system: Patients with Type 2 Diabetes Insufficiently Controlled with Insulin Glargine with or without Metformin; assay: 2-h PPG post test meal, 26-week study; assay type: in vivo, human; conditions: subset of mITT treated before breakfast; for 2-h PPG post test meal, LS mean treatment difference (lixisenatide vs the labelled arm) / 2-h PPG post test meal, LS mean ± SE change from BL: Week 26
Experimental: as §2

Row | Substance | Fasting plasma glucose change to Week 26, LS Mean difference (SE) of Lixisenatide vs. the labelled insulin glulisine arm [1] | Fasting plasma glucose, Change from baseline to Week 26 (LOCF), LS Mean (SE) [1] | FPG, BL (end run-in) mean ± SD [1] [mg/dL] | Fasting plasma glucose, Baseline, Mean (SD) [1] | Fasting plasma glucose, Baseline, Median [1] [mmol/L] | FPG, Screening (start run-in) mean ± SD [1] [mg/dL] | FPG, Week 26 (LOCF) mean ± SD [1] [mg/dL] | Fasting plasma glucose, Week 26 (LOCF), Mean (SD) [1] | Fasting plasma glucose, Week 26 (LOCF), Median [1] [mmol/L] | FPG, LS mean treatment difference (lixisenatide vs the labelled arm) [1] [mg/dL] | FPG, LS mean ± SE change from BL [1] [mg/dL] | Fasting plasma glucose, Change from baseline to Week 26 (LOCF), Mean (SD) [1] | Fasting plasma glucose, Change from baseline to Week 26 (LOCF), Median [1] [mmol/L] | HbA1c change to Week 26, LS Mean difference (SE) of Lixisenatide vs. the labelled insulin glulisine arm [2] | HbA1c, Change from baseline to Week 26 (LOCF), LS Mean (SE) [2] | HbA1c, BL (end run-in) mean ± SD [2] [%] | HbA1c, Baseline, Mean (SD) [2] | HbA1c, Baseline, Median [2] [%] | HbA1c, Screening (start run-in) mean ± SD [2] [%] | HbA1c, Week 26 (LOCF), Mean (SD) [2] | also measured
1 | Insulin Glulisine QD: insulin glulisine once daily, added to insulin glargine ± metformin (comparator arm) | −0.01 (0.157) mmol/L | −0.21 (0.142) mmol/L | 123 ± 36 | 6.85 (1.99) mmol/L | 6.50 | 167 ± 52 | 120 ± 35 | 6.66 (1.94) mmol/L | 6.40 | 0 | -4 ± 3 | −0.19 (2.52) mmol/L | -0.10 | −0.05 (0.059) % | −0.58 (0.054) % | 7.7 ± 0.6 | 7.72 (0.58) % | 7.70 | 8.5 ± 0.7 | 7.21 (0.79) % | HbA1c, Week 26 (LOCF), Median [2]: 7.10%; HbA1c, Week 26 (LOCF) mean ± SD [2]: 7.2 ± 0.8%; HbA1c, LS mean treatment difference (lixisenatide vs the labelled arm), co-primary endpoint [2]: −0.1^† %; HbA1c, LS mean ± SE change from BL [2]: −0.6 ± 0.1%; HbA1c, Change from baseline to Week 26 (LOCF), Mean (SD) [2]: −0.51 (0.80) %; HbA1c, Change from baseline to Week 26 (LOCF), Median [2]: −0.50%; Any symptomatic hypoglycemia: Number of events [3]: 395; Any symptomatic hypoglycemia: Number of events per 100 patient years [3]: 266.4 per 100 patient years; Any symptomatic hypoglycemia: Number of patients with events per 100 patient years [3]: 78.9 per 100 patient years; Documented Symptomatic Hypoglycemia at Week 26, % pts [3]: 37.5 (p = 0.144) % pts; Documented Symptomatic Hypoglycemia at Week 26, No. of events [3]: 384; Documented Symptomatic Hypoglycemia at Week 26, No. of events/pt years [3]: 2.6 events/pt years; Severe Hypoglycemia, no. of pts with events [3]: 2; Reason for treatment discontinuation: Lack of efficacy [4]: 4 (1.3%) n (%); Reason for treatment discontinuation: Adverse event [4]: 2 (0.7%) n (%); 2-h PPG post test meal, BL (end run-in) mean ± SD [5]: 249 ± 63 mg/dL; 2-h PPG post test meal, Week 26 (LOCF) mean ± SD [5]: 220 ± 60 mg/dL; 2-h PPG post test meal, LS mean treatment difference (lixisenatide vs the labelled arm) [5]: -37 mg/dL; 2-h PPG post test meal, LS mean ± SE change from BL [5]: -28 ± 11 mg/dL
2 | Insulin Glulisine TID: insulin glulisine three times daily, added to insulin glargine ± metformin (comparator arm) | −0.17 (0.158) mmol/L | −0.06 (0.140) mmol/L | 120 ± 34 | 6.65 (1.89) mmol/L | 6.40 | 171 ± 53 | 121 ± 36 | 6.71 (2.02) mmol/L | 6.50 | -3 | -1 ± 3 | 0.05 (2.47) mmol/L | -0.20 | 0.21 (0.059) % | −0.84 (0.053) % | 7.8 ± 0.6 | 7.79 (0.60) % | 7.70 | 8.5 ± 0.8 | 6.96 (0.73) % | HbA1c, Week 26 (LOCF), Median [2]: 7.00%; HbA1c, Week 26 (LOCF) mean ± SD [2]: 7.0 ± 0.7%; HbA1c, LS mean treatment difference (lixisenatide vs the labelled arm), co-primary endpoint [2]: 0.2^† %; HbA1c, LS mean ± SE change from BL [2]: −0.8 ± 0.1%; HbA1c, Change from baseline to Week 26 (LOCF), Mean (SD) [2]: −0.82 (0.78) %; HbA1c, Change from baseline to Week 26 (LOCF), Median [2]: −0.90%; Any symptomatic hypoglycemia: Number of events [3]: 600; Any symptomatic hypoglycemia: Number of events per 100 patient years [3]: 410.4 per 100 patient years; Any symptomatic hypoglycemia: Number of patients with events per 100 patient years [3]: 90.3 per 100 patient years; Documented Symptomatic Hypoglycemia at Week 26, % pts [3]: 44.6 (p = 0.001) % pts; Documented Symptomatic Hypoglycemia at Week 26, No. of events [3]: 595; Documented Symptomatic Hypoglycemia at Week 26, No. of events/pt years [3]: 4.1 events/pt years; Severe Hypoglycemia, no. of pts with events [3]: 0; Reason for treatment discontinuation: Lack of efficacy [4]: 0 n (%); Reason for treatment discontinuation: Adverse event [4]: 5 (1.7%) n (%); 2-h PPG post test meal, BL (end run-in) mean ± SD [5]: 262 ± 63 mg/dL; 2-h PPG post test meal, Week 26 (LOCF) mean ± SD [5]: 229 ± 69 mg/dL; 2-h PPG post test meal, LS mean treatment difference (lixisenatide vs the labelled arm) [5]: -40 mg/dL; 2-h PPG post test meal, LS mean ± SE change from BL [5]: -25 ± 11 mg/dL
